Measurements reported in US10851088B2, “Polymorphs and solid forms of a pyrimidinylamino-pyrazole compound, and methods of production” (Denali Therapeutics Inc., priority 2017, dated 2020).
≈ marks a conversion by molar mass, not a printed value. Where two headings read alike, the source gives them in different places.

Legend:
Assay type in all cases: physicochemical
[1] = Slurry competition experiments (thermodynamic stability of anhydrate forms); conditions: for thermodynamic stability, Form C versus Form D: slurry competition
Experimental: Slurry competition experiments were performed to investigate the inter-conversion relationship between three anhydrates (Form A, C, and D). […] Slurry competition was first performed between Form A and C at RT and 50° C. Form C was obtained after slurrying for 40 hrs at RT or 2 hrs at 50° C. […] Therefore, slurry competition was further performed between Form C and D in various solvent systems. The solvent effect of H2O was discovered to be associated with the inter-conversion relationship between Form C and D, with form D forming under anhydrous conditions.
To understand the thermodynamic stability relationship between Form A and Form C, slurry competition experiments were performed at RT and 50° C. in different solvent systems, including acetone/n-heptane, methyl tert-butylether (MTBE)/heptane, and water. Form A was used to saturate the corresponding solvent before filtered to obtain a near-saturated solution. Equal amount of Form A and C samples were weighed and then mixed with the prepared near-saturated solution to form a new suspension, which was stirred magnetically (˜1000 rpm) at RT and 50° C. The XRPD patterns of remaining solids after slurry were measured. […] Form D was obtained via slurrying Form A in MTBE/n-heptane (1:4, v/v) at RT for 1 day, with the addition of Form D sample as seeds.
To further understand the thermodynamic stability relationship between Form C and Form D, slurry competition experiments were performed at RT and 70° C. in various solvent systems, including methyl tert-butylether/heptane, water, cyclohexane, and ethanol/isooctane. Equal amount of Form C and D samples were weighed and then mixed with the near-saturated solution of Form A in corresponding solvent to form a suspension, which was stirred magnetically (˜1000 rpm) at different temperatures. The XRPD patterns of remaining solids after slurry were measured. […] Water content in process solvents were monitored and controlled during the manufacturing of Form C or D samples. […] Water activity (or relative humidity) was monitored and controlled during the manufacture and storage of Form C or D samples.

[2] = Dynamic vapor sorption (DVS) hygroscopicity test; conditions: for water uptake: at 80% RH at 25° C., DVS
Experimental: To investigate the solid form stability as a function of humidity, Dynamic Vapor Sorption (DVS) isotherm plots of Form A, Form C, and Form D were collected at 25° C. between 0 and 95% relative humidity (RH) by the procedures of Example 8. […] DVS was measured via a SMS (Surface Measurement Systems) DVS Intrinsic. The relative humidity at 25° C. were calibrated against deliquescence points of LiCl, Mg(NO3)2 and KCl. [table]

[3] = 24 hrs solubility in H2O at RT (HPLC of supernatant, XRPD of residual solids)
Experimental: The solubility at 24 hrs of Forms A, C, and D was measured in water at RT. Form A, Form C, and Form D samples were suspended into H2O with dose concentration of 10 mg/mL. After slurrying the suspensions at RT for 24 hrs (1000 rpm), the supernatants were separated for HPLC solubility measurement and the residual solids were characterized by XRPD.

[4] = Approximate solubility in solvents, used to choose slurry solvent systems
[5] = 24 hrs slurry at 10 mg/mL dose concentration, HPLC

SMILES	thermodynamic stability, Form A versus Form C ([1]; slurry competition of equal amounts of Form A and C, RT and 50° C., various solvents)	thermodynamic stability, Form C versus Form D ([1]; water activity aw≥0.5 at RT)	Hygroscopicity ([2]; DVS at 25° C., 0 to 95% RH)	water uptake [2] [%]	form change after 24 hrs solubility evaluation (XRPD of residual solids) [3]	24 Hrs Solubility in H2O at RT [3, 5] [µg/mL]	solubility ([4]; H2O and non-polar solvents (e.g., n-heptane, cyclohexane), water, read-out: solubility in H2O and non-polar solvents) [µg/mL]	solubility ([4]; organic solvent or mixture, solvents other than H2O and non-polar solvents, read-out: solubility in other solvents) [µg/mL]	solubility at 24 h ([3]; water, thermodynamic from solid, 24 hrs slurry at 10 mg/mL dose concentration, HPLC) [µg/mL]	thermodynamic stability, Form C versus Form D ([1]; water activity aw≤0.2 at RT)
CNc1nc(Nc2cn(C(C)(C)C#N)nc2C)ncc1C(F)(F)F [Form C, 2-methyl-2-(3-methyl-4-(4-(methylamino)-5-(trifluoromethyl)pyrimidin-2-ylamino)-1H-pyrazol-1-yl)propanenitrile]	thermodynamically more stable than Form A	more stable	slightly hygroscopic	0.6	No form change	140				
CNc1nc(Nc2cn(C(C)(C)C#N)nc2C)ncc1C(F)(F)F [Formula I compound, 2-methyl-2-(3-methyl-4-(4-(methylamino)-5-(trifluoromethyl)pyrimidin-2-ylamino)-1H-pyrazol-1-yl)propanenitrile]							< 2000	> 40000		
CNc1nc(Nc2cn(C(C)(C)C#N)nc2C)ncc1C(F)(F)F [Form A, 2-methyl-2-(3-methyl-4-(4-(methylamino)-5-(trifluoromethyl)pyrimidin-2-ylamino)-1H-pyrazol-1-yl)propanenitrile]				0.04	No form change				180 (≈ 530 µM)	
CNc1nc(Nc2cn(C(C)(C)C#N)nc2C)ncc1C(F)(F)F [Form D, 2-methyl-2-(3-methyl-4-(4-(methylamino)-5-(trifluoromethyl)pyrimidin-2-ylamino)-1H-pyrazol-1-yl)propanenitrile]				0.05	No form change	110				thermodynamically more stable
